In PMC5547380, “Molecular cloning and characterization of protein disulfide isomerase of Brugia malayi, a human lymphatic filarial parasite” (EXCLI Journal, 2017):
Read-outs that look alike come from different tables or passages of the source.

Target: T1, Brugia malayi Protein disulfide isomerase (BmPDI) (Brugia malayi, UniProt A0A1S0S010)
T1 construct: gene pdi; recombinant 6XHis-tagged BmPDI expressed in E. coli
Experiment: refolding of reduced denatured RNase A, RNA hydrolysis followed by absorbance at […] nm
Assay type: biochemical

| Compound | IC50 (read-out: IC50) | IC50 |
| --- | --- | --- |
| O=C1C=CC(=C(c2ccc(O)cc2)c2ccc(O)cc2)C=C1 [aurin] | 17.6 µM |  |
| NC[C@H]1O[C@H](O[C@H]2[C@H](O[C@@H]3O[C@H](CO)[C@@H](O)[C@H]3O)[C@@H](O)[C@H](N)C[C@@H]2N)[C@H](N)[C@@H](O)[C@@H]1O [ribostamycin] |  | 35.6 µM |
| Cc1ccc(C(=O)Nc2ccc(S(=O)(=O)O)c3cc(S(=O)(=O)O)cc(S(=O)(=O)O)c23)cc1NC(=O)c1cccc(NC(=O)Nc2cccc(C(=O)Nc3cc(C(=O)Nc4ccc(S(=O)(=O)O)c5cc(S(=O)(=O)O)cc(S(=O)(=O)O)c45)ccc3C)c2)c1 [suramin] | 74.2 µM |  |
